This is an account of results in US8916183B2, “Pesticidal compositions and processes related thereto” (priority 2012, dated 2014).

Like-named read-outs stand apart in the source and are kept apart here.

What all share (assay type): in vivo
Test [1] has as its system Beet Armyworm (BAW) (Spodoptera exigua). In words: Bioassay on beet armyworm (BAW), 128-well diet tray assay. As to conditions: Spodoptera exigua, read-out: % Mortality BAW 50 μg/cm^2.
Test [2] deals with Corn Earworm (CEW) (Helicoverpa zea). As to the kind of experiment: Bioassay on corn earworm (CEW), 128-well diet tray assay. As to conditions: Helicoverpa zea, read-out: % Mortality CEW 50 μg/cm^2. Put shortly:
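Larvae in a 128-well diet tray were held at 25° C under 14:10 light-dark for five to seven days. Percent mortality was scored per well and averaged over eight wells, then reported on a rating scale.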

For test [3], the system named is Green Peach Aphid (GPA) (Myzus persicae). As to the kind of experiment: Bioassay on green peach aphid (GPA), foliar spray on cabbage seedlings. As to conditions: read-out: % Mortality GPA 200 ppm. How it is done: Certain molecules disclosed in this document were tested against GPA using procedures described in the following example. In the reporting of the results, the “GPA Rating Table” was used (See Table Section).
Cabbage seedlings grown in 3-inch pots, with 2-3 small (3-5 cm) true leaves, were used as test substrate. The seedlings were infested with 20-50 GPA (wingless adult and nymph stages) one day prior to chemical application. Four pots with individual seedlings were used for each treatment. Test compounds (2 mg) were dissolved in 2 mL of acetone/methanol (1:1) solvent, forming stock solutions of 1000 ppm test compound. […] A hand-held aspirator-type sprayer was used for spraying a solution to both sides of […] leaves until runoff. Reference plants (solvent check) were sprayed with the diluent only containing 20% by volume of acetone/methanol (1:1) solvent. Treated plants were held in a holding room for three days at approximately 25° C. and ambient relative humidity (RH) prior to grading. Evaluation was conducted by counting the number of live aphids per plant under a microscope. […] Corrected % Control=100*(X−Y)/X • where • X=No. of live aphids on solvent check plants and • Y=No. of live aphids on treated plants
The results are indicated in the table entitled “Table 5: Biological Results” (See Table Section).

Turning to `COc1cc(C)c(/N=C(/N/N=C/c2ccc(-c3ncn(-c4ccc(OC(F)(F)F)cc4)n3)cc2)SCOC(=O)C(C)C)c(C)c1` [Compound 27C], the mortality at 50 µg/cm2 in test [1] (beet armyworm, 50 μg/cm^2) was in the range of 50 to 100%; in test [2] (corn earworm, 50 μg/cm^2) it was 50 to 100%. For the same molecule, the mortality at 200 ppm in test [3] (green peach aphid, 200 ppm) lay within 0 to 80%.
For the molecule `Cc1cccc(C)c1/N=C(/N/N=C/c1ccc(-c2ncn(-c3ccc(OC(F)(F)F)cc3)n2)cc1)SCc1ccccc1F` [Compound 11C], the mortality at 50 µg/cm2 in test [1] (beet armyworm, 50 μg/cm^2) lay within 50 to 100%; in test [2] (corn earworm, 50 μg/cm^2), 50 to 100%. In addition, the mortality at 200 ppm in test [3] (green peach aphid, 200 ppm) amounted to 0%.
For `Cc1cccc(C)c1/N=C(/N/N=C/c1ccc(-c2ncn(-c3ccc(OC(F)(F)F)cc3)n2)cc1)SCc1ccccc1` [Compound 10C], the mortality at 50 µg/cm2 in test [1] (beet armyworm, 50 μg/cm^2) lay in the range of 50 to 100%; in test [2] (corn earworm, 50 μg/cm^2) it was 50 to 100%. Moreover, in test [3] (green peach aphid, 200 ppm), the mortality at 200 ppm turned out to be 0%.
For the molecule `Cc1cccc(C)c1/N=C(/N/N=C/c1ccc(-c2ncn(-c3ccc(OC(F)(F)F)cc3)n2)cc1)SCC#C[Si](C)(C)C` [Compound 9C], the mortality at 50 µg/cm2 in test [1] and in test [2] was 50 to 100% each time. In addition, the mortality at 200 ppm in test [3] amounted to 0%.
Regarding `CCC(C)c1ccccc1N1C(=O)CS/C1=N\N=C\c1ccc(-c2ncn(-c3ccc(OC(F)(F)F)cc3)n2)cc1` (stereo not drawn) [Compound 108C], the mortality at 50 µg/cm2 in test [1] (beet armyworm, 50 μg/cm^2) was in the range of 50 to 100%; in test [2] (corn earworm, 50 μg/cm^2), 50 to 100%. In addition, the mortality at 200 ppm in test [3] (green peach aphid, 200 ppm) worked out at 0%.
Consider `Cc1ccc(N2/C(=N/N=C/c3ccc(-c4ncn(-c5ccc(OC(F)(F)F)cc5)n4)cc3)SCC2(C)O)c(C(C)C)c1` (stereo not drawn) [Compound 251C], for which the mortality at 50 µg/cm2 was in the range of 50 to 100% in test [1] (beet armyworm, 50 μg/cm^2) and 50 to 100% in test [2] (corn earworm, 50 μg/cm^2). Further, the mortality at 200 ppm in test [3] (green peach aphid, 200 ppm) lay within 0 to 80%.
Consider `COc1cc(C)c(N2CCS/C2=N\N=C\c2ccc(-c3ncn(-c4ccc(OC(F)(F)F)cc4)n3)cc2)c(C)c1` [Compound 138C], for which the mortality at 50 µg/cm2 is 50 to 100% in test [1] (beet armyworm, 50 μg/cm^2) and 50 to 100% in test [2] (corn earworm, 50 μg/cm^2). For the same molecule, in test [3] (green peach aphid, 200 ppm), the mortality at 200 ppm is 0 to 80%.
Take `Cc1cc(Br)cc(C)c1N1CCCS/C1=N\N=C\c1ccc(-c2ncn(-c3ccc(OC(F)(F)F)cc3)n2)cc1` [Compound 203C]: the mortality at 50 µg/cm2 was 50 to 100% in test [1] (beet armyworm, 50 μg/cm^2) and 50 to 100% in test [2] (corn earworm, 50 μg/cm^2). The mortality at 200 ppm in test [3] (green peach aphid, 200 ppm) lay in the range of 0 to 80%.
Take `CCc1cccc(C)c1N1/C(=N/N=C/c2ccc(-c3ncn(-c4ccc(OC(F)(F)F)cc4)n3)cc2)SCCC1C` (stereo not drawn) [Compound 213C]: the mortality at 50 µg/cm2 lay in the range of 50 to 100% in test [1] (beet armyworm, 50 μg/cm^2) and 50 to 100% in test [2] (corn earworm, 50 μg/cm^2). Also, in test [3] (green peach aphid, 200 ppm), the mortality at 200 ppm lay in the range of 0 to 80%.
Regarding `CC1S/C(=N\N=C\c2ccc(-c3ncn(-c4ccc(OC(F)(F)F)cc4)n3)cc2)N(c2c(F)cccc2F)C1=O` (stereo not drawn) [Compound 131C], the mortality at 50 µg/cm2 in test [1] (beet armyworm, 50 μg/cm^2) lay in the range of 50 to 100%; in test [2] (corn earworm, 50 μg/cm^2), 50 to 100%. The mortality at 200 ppm in test [3] (green peach aphid, 200 ppm) was determined as 0%.
Take `COc1cc(C)c(/N=C(/N/N=C/c2ccc(-c3ncn(-c4ccc(OC(F)(F)F)cc4)n3)cc2)SCC(=O)NCCCNC(=O)OC(C)(C)C)c(C)c1` [Compound 60C]: the mortality at 50 µg/cm2 fell in the range of 50 to 100% in test [1] (beet armyworm, 50 μg/cm^2) and 50 to 100% in test [2] (corn earworm, 50 μg/cm^2). Besides, in test [3] (green peach aphid, 200 ppm), the mortality at 200 ppm stood at 0%.
`FC(F)(F)Oc1ccc(-n2cnc(-c3ccc(/C=N/N=C4\SCCCN4c4ccccc4C4CC4)cc3)n2)cc1` [Compound 186C]: the mortality at 50 µg/cm2 in test [1] (beet armyworm, 50 μg/cm^2) fell in the range of 50 to 100%; in test [2] (corn earworm, 50 μg/cm^2), 50 to 100%. Besides, the mortality at 200 ppm in test [3] (green peach aphid, 200 ppm) is 0 to 80%.
Take `CC(C)c1ccccc1N1/C(=N/N=C/c2ccc(-c3ncn(-c4ccc(C(F)(F)F)cc4)n3)cc2)SCC1(C)O` (stereo not drawn) [Compound 261C]: the mortality at 50 µg/cm2 lay in the range of 50 to 100% in test [1] (beet armyworm, 50 μg/cm^2) and 50 to 100% in test [2] (corn earworm, 50 μg/cm^2). Also, the mortality at 200 ppm in test [3] (green peach aphid, 200 ppm) amounted to 0%.
In the case of `O=C1CS/C(=N\N=C\c2ccc(-c3ncn(-c4ccc(OC(F)(F)F)cc4)n3)cc2)N1c1c(F)cccc1Cl` [Compound 95C], the mortality at 50 µg/cm2 lay within 50 to 100% in test [1] (beet armyworm, 50 μg/cm^2) and 50 to 100% in test [2] (corn earworm, 50 μg/cm^2). In addition, in test [3] (green peach aphid, 200 ppm), the mortality at 200 ppm lay in the range of 0 to 80%.
Consider `O=C1CS/C(=N\N=C\c2ccc(-c3ncn(-c4ccc(OC(F)(F)F)cc4)n3)cc2)N1c1ccccc1C1CC1` [Compound 112C], for which the mortality at 50 µg/cm2 is 50 to 100% in test [1] (beet armyworm, 50 μg/cm^2) and 50 to 100% in test [2] (corn earworm, 50 μg/cm^2). Besides, in test [3] (green peach aphid, 200 ppm), the mortality at 200 ppm lay in the range of 0 to 80%.
Turning to `CC(C)c1cc(F)c(F)cc1N1/C(=N/N=C/c2ccc(-c3ncn(-c4ccc(OC(F)(F)F)cc4)n3)cc2)SCC1(C)O` (stereo not drawn) [Compound 259C], the mortality at 50 µg/cm2 was 50 to 100% in test [1] (beet armyworm, 50 μg/cm^2) and 50 to 100% in test [2] (corn earworm, 50 μg/cm^2). Moreover, the mortality at 200 ppm in test [3] (green peach aphid, 200 ppm) was found to be 0%.
As to `CCc1ccccc1N1CCS/C1=N\N=C\c1ccc(-c2ncn(-c3ccc(OC(F)(F)F)cc3)n2)cc1` [Compound 133C], the mortality at 50 µg/cm2 was 50 to 100% in test [1] (beet armyworm, 50 μg/cm^2) and 50 to 100% in test [2] (corn earworm, 50 μg/cm^2). Moreover, the mortality at 200 ppm in test [3] (green peach aphid, 200 ppm) lay within 0 to 80%.
As to `Cc1cccc(C)c1/N=C(/N/N=C/c1ccc(-c2ncn(-c3ccc(OC(F)(F)F)cc3)n2)cc1)SCC(=O)NCC(N)C(=O)O` (stereo not drawn) [Compound 63C], the mortality at 50 µg/cm2 in test [1] (beet armyworm, 50 μg/cm^2) was in the range of 50 to 100%; in test [2] (corn earworm, 50 μg/cm^2), 50 to 100%. In addition, the mortality at 200 ppm in test [3] (green peach aphid, 200 ppm) amounted to 0%.
Consider `COc1ccc(N2CCS/C2=N\N=C\c2ccc(-c3ncn(-c4ccc(OC(F)(F)F)cc4)n3)cc2)c(C)c1` [Compound 137C], for which the mortality at 50 µg/cm2 lay in the range of 50 to 100% in test [1] (beet armyworm, 50 μg/cm^2) and 50 to 100% in test [2] (corn earworm, 50 μg/cm^2). The mortality at 200 ppm in test [3] (green peach aphid, 200 ppm) came out at 0%.
In the case of `Cc1cc(C)c(N2C(=O)CS/C2=N\N=C\c2ccc(-c3ncn(-c4ccc(OC(F)(F)F)cc4)n3)cc2)c(C)c1` [Compound 72C], the mortality at 50 µg/cm2 in test [1] (beet armyworm, 50 μg/cm^2) was 50 to 100%; in test [2] (corn earworm, 50 μg/cm^2), 50 to 100%. Further, in test [3] (green peach aphid, 200 ppm), the mortality at 200 ppm was in the range of 0 to 80%.
For the molecule `CC(C)c1ccccc1N1/C(=N/N=C/c2ccc(-c3ncn(-c4ccc(OC(F)(F)F)cc4)n3)cc2)SCC1(C)O` (stereo not drawn) [Compound 242C], the mortality at 50 µg/cm2 is 50 to 100% in test [1] (beet armyworm, 50 μg/cm^2) and 50 to 100% in test [2] (corn earworm, 50 μg/cm^2). Besides, the mortality at 200 ppm in test [3] (green peach aphid, 200 ppm) is 0 to 80%.
For the molecule `CCS/C(=N\c1c(Cl)cccc1Cl)N/N=C/c1ccc(-c2ncn(-c3ccc(OC(F)(F)F)cc3)n2)cc1` [Compound 2C], the mortality at 50 µg/cm2 in test [1] (beet armyworm, 50 μg/cm^2) was in the range of 50 to 100%; in test [2] (corn earworm, 50 μg/cm^2) it was 50 to 100%. Besides, the mortality at 200 ppm in test [3] (green peach aphid, 200 ppm) was 0%.
In the case of `CC1(O)CS/C(=N\N=C\c2ccc(-c3ncn(-c4ccc(OC(F)(F)F)cc4)n3)cc2)N1c1c(F)cccc1F` (stereo not drawn) [Compound 240C], the mortality at 50 µg/cm2 lay within 50 to 100% in test [1] (beet armyworm, 50 μg/cm^2) and 50 to 100% in test [2] (corn earworm, 50 μg/cm^2). Further, the mortality at 200 ppm in test [3] (green peach aphid, 200 ppm) is 0%.
With `O=C1CS/C(=N\N=C\c2ccc(-c3ncn(-c4ccc(OC(F)(F)F)cc4)n3)cc2)N1c1c(Cl)cccc1Cl` [Compound 70C], the mortality at 50 µg/cm2 in test [1] (beet armyworm, 50 μg/cm^2) lay in the range of 50 to 100%; in test [2] (corn earworm, 50 μg/cm^2), 50 to 100%. In addition, the mortality at 200 ppm in test [3] (green peach aphid, 200 ppm) was determined as 0%.
As for `COc1ccccc1N1CCS/C1=N\N=C\c1ccc(-c2ncn(-c3ccc(OC(F)(F)F)cc3)n2)cc1` [Compound 140C], the mortality at 50 µg/cm2 lay within 50 to 100% in test [1] (beet armyworm, 50 μg/cm^2) and 50 to 100% in test [2] (corn earworm, 50 μg/cm^2). The mortality at 200 ppm in test [3] (green peach aphid, 200 ppm) was in the range of 0 to 80%.
For the molecule `Cc1cccc(C)c1-n1c(-c2ccc(OC(F)(F)F)cc2)cs/c1=N\N=Cc1ccc(-c2ncn(-c3ccc(OC(F)(F)F)cc3)n2)cc1` [Compound 78C], the mortality at 50 µg/cm2 in test [1] (beet armyworm, 50 μg/cm^2) was 50 to 100%; in test [2] (corn earworm, 50 μg/cm^2) it was 50 to 100%. Besides, the mortality at 200 ppm in test [3] (green peach aphid, 200 ppm) fell in the range of 0 to 80%.
Consider `Cc1ccccc1N1CCS/C1=N\N=C\c1ccc(-c2ncn(-c3ccc(OC(F)(F)F)cc3)n2)cc1` [Compound 141C], for which the mortality at 50 µg/cm2 in test [1] (beet armyworm, 50 μg/cm^2) is 50 to 100%; in test [2] (corn earworm, 50 μg/cm^2), 50 to 100%. For the same molecule, the mortality at 200 ppm in test [3] (green peach aphid, 200 ppm) was found to be 0%.
